Results from patent publication US20250145631A1, “HETEROCYCLIC COMPOUND ACTING ON G12D MUTANT KRAS PROTEIN” (Astellas Pharma Inc., priority 2022, published 2025).

What was measured:
Type in all cases: cell-based
KRAS G12D = biological target: T1, KRAS G12D (Homo sapiens, UniProt P01116, G12D); assay: KRAS degradation activity by Cell ELISA in AsPC-1 cells (Test Example 1); settings: for Dmax: ASPC1, overnight treatment, read-out: Dmax (degradation rate at the concentration showing highest degradation); for Dmax / DC50: Cell ELISA; for DC50: overnight treatment, read-out: DC50 (50% degradation concentration of KRAS)
T1 construct: host or cells: AsPC-1 (human pancreatic cancer line)
T1 sequence (P01116 1-188 isoform P01116-2 G12D): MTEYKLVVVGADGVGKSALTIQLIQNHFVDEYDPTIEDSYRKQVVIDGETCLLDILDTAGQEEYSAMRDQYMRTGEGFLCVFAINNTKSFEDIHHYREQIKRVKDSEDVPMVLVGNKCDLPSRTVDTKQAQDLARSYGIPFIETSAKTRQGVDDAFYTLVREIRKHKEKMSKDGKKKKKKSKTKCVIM
Procedure, shortened: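 AsPC-1 cells (2.0×10^4/well) treated overnight with compounds at 10 μM–0.3 nM (10 points), then fixed, permeabilised and stained for KRAS G12D (800 nm) and β-actin (700 nm) by in-cell ELISA. KRAS signal normalised to β-actin, DMSO set as 0% and actin-only staining as 100%; DC50 from Sigmoid-Emax regression up to Dmax.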

[1] = system: phosphorylation of ERK (Thr202/Tyr204); assay: ERK phosphorylation inhibitory effect by Cell ELISA in AsPC-1 cells (Test Example 2); settings: Homo sapiens, ASPC1, overnight treatment, Cell ELISA, read-out: IC50 (ERK phosphorylation inhibition)
Procedure, shortened: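 AsPC-1 cells (2.0×10^4/well, RPMI 1640 + 10% FBS) treated overnight with compounds (10 points, 10 μM to 0.3 nM final), then glyoxal-fixed and immunostained for phospho-ERK with IRDye 800CW secondary; 800-nm fluorescence read. IC50 by Sigmoid-Emax regression, normalized to DMSO (100%) and 1 μM trametinib (0%).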

[2] = system: human G12D mutant KRAS-positive pancreatic cancer line AsPC-1; assay: Non-anchorage-dependent cell growth inhibitory effect, spheroid 3D culture (Test Example 3); settings: ASPC1, 144 h, AsPC-1 spheroid 3D culture, 6 days; for IC50: CellTiter Glo 2.0, read-out: IC50 (non-anchorage-dependent cell growth inhibition)
Procedure, shortened: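 AsPC-1 cells grown as spheroids in RPMI 1640 with 10% FBS at 37° C, 5% CO2, then exposed to compounds (10 μM to 0.3 nM final) for 6 days. Viability read by CellTiter Glo 2.0 luminescence. IC50 from Sigmoid-Emax regression with DMSO as 100% and cell-free medium as 0%.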

Row | Structure (SMILES) | Dmax (KRAS G12D) [%] | DC50 (KRAS G12D) [µM] | IC50 [1] [µM] | IC50 [2] [µM] | degradation rate at the highest concentration evaluated (printed in DC50 column) (KRAS G12D; at 10 μM) [% at 10 μM] | inhibition at 10 µM ([2]; at 10 μM, read-out: cell growth inhibition at the highest concentration evaluated) [%]
1 | Cc1c(F)cc2[nH]ncc2c1-c1c(C2CC2)cc2c(N3C[C@@H]4C[C@H]3CN4)nc(OC3CCOCC3)nc2c1OCc1ccc(C(=O)N2CCN(Cc3ccc4c(c3)CN(C3CCC(=O)NC3=O)C4=O)C[C@@H]2C)cc1 (stereo partly drawn) [Example 33, 3-(5-{[(3S)-4-{4-[({(7M)-6-cyclopropyl-4-[(1S,4S)-2,5-diazabicyclo[2.2.1]heptan-2-yl]-7-(6-fluoro-5-methyl-1H-indazol-4-yl)-2-[(oxan-4-yl)oxy]quinazolin-8-yl}oxy)methyl]benzoyl}-3-methylpiperazin-1-yl]methyl}-1-oxo-1,3-dihydro-2H-isoindol-2-yl)piperidine-2,6-dione] | 88 | 0.079 | 0.102 | 0.142 |  | 
2 | CO[C@@H](C)COc1nc(O[C@H]2CCNC2)c2cc(C3CC3)c(-c3c(C)c(F)cc4[nH]ncc34)c(OCc3ccc(C(=O)N4CCN(Cc5ccc6c(c5)n(C)c(=O)n6C5CCC(=O)NC5=O)C[C@@H]4C)cc3)c2n1 (some centres unmarked) [Example 43] | 90 | 0.009 | 0.013 | 0.033 |  | 
3 | Cc1c(F)cc2[nH]ncc2c1-c1c(C2CC2)cc2c(N3C[C@@H]4C[C@H]3CN4)nc(O[C@@H]3CCOC3)nc2c1OCc1ccc(C(=O)N2CCN(Cc3ccc4c(c3)n(C)c(=O)n4C3CCC(=O)NC3=O)C[C@@H]2C)cc1 (some centres unmarked) [Example 36] | 80 | 0.079 | 0.078 | 0.159 |  | 
4 | CC[C@H]1CN(Cc2ccc3c(N4CCC(=O)NC4=O)nn(C)c3c2)CCN1C(=O)c1ccc(COc2c(-c3c(C)c(F)cc4[nH]ncc34)c(C3CC3)cc3c(N4C[C@@H]5C[C@H]4CN5)nc(OC4CCOCC4)nc23)cc1 (atropisomer, axis not shown) [Example 25] | 70 | 0.856 | 0.668 | 0.46 |  | 
5 | Cc1c(F)cc2[nH]ncc2c1-c1c(C2CC2)cc2c(N3C[C@@H]4C[C@H]3CN4)nc(OC3CCOCC3)nc2c1OCc1ccc(C(=O)N2CCN(Cc3ccc4c(c3)c(N3CCC(=O)NC3=O)nn4C)C[C@@H]2C)cc1 (atropisomer, axis not shown) [Example 27] | 25 |  | 2.77 | 1.89 | 25 | 
6 | CO[C@@H](C)COc1nc(N(C)[C@H]2CCNC2)c2cc(C3CC3)c(-c3c(C)c(F)cc4[nH]ncc34)c(OCc3ccc(C(=O)N4CCN(Cc5ccc6c(c5)n(C)c(=O)n6C5CCC(=O)NC5=O)C[C@@H]4C)cc3)c2n1 (some centres unmarked) [Example 18] | 77 | 0.085 | 0.25 | 0.217 |  | 
7 | Cc1c(F)cc2[nH]ncc2c1-c1c(C2CC2)cc2c(N3C[C@@H]4C[C@H]3CN4)nc(OC3CCOCC3)nc2c1OCc1ccc(C(=O)N2CCN(Cc3cccc4c3oc(=O)n4C3CCC(=O)NC3=O)CC2)cc1 (some centres unmarked) [Example 6] | 49 | 2.73 | 3.94 |  |  | 50
8 | Cc1c(F)cc2[nH]ncc2c1-c1c(C2CC2)cc2c(N3C[C@@H]4C[C@H]3CN4)nc(OC3CCOCC3)nc2c1OCc1ccc(C(=O)N2CCC3(CN(Cc4ccc5c(N6CCC(=O)NC6=O)nn(C)c5c4)C3)C2)cc1 (atropisomer, axis not shown) [Example 19] | 93 | 0.278 | 0.555 | 0.242 |  | 
